What was measured:
Assay type in all cases: cell-based, mouse
[1] = test system: TGFβ-induced Smad phosphorylation; assay: TGFβ signaling in T and B cells (Smad phosphorylation, lymphocyte responses to TGFβ); details: HF 2.5-40 nM or 10 nM; SB-431542 10 μM
Protocol: T cells were then activated in the presence or absence of 3 ng/ml. TGFβ. Whole cell extracts were prepared after 1 hour of stimulation and western blot analyses were performed using the indicated antibodies.
Western blotting: Whole cell lysates were generated from T cells activated for the indicated times. For STAT3 and Smad2/3 western blots cells were harvested, washed in PBS and lysed in 50 mM Tris, pH 7.4, 0.1% SDS, 1% Triton-X100, 140 mM NaCl, 1 mM EDTA, 1 mM EGTA supplemented with protease inhibitors tablets (Roche-Germany), 1 mM NaF and 1 mM Na3VO4. For eIF2α and ATF4 western blots, cells were harvested as above and lysed in 50 mM Tris, pH 7.4, 2% SDS, 20% glycerol and 2 mM EDTA supplemented with protease and phosphatase inhibitors as above. All lysates were cleared via centrifugation and 15-30 μg of protein was resolved by SDS-PAGE. Protein was transferred to nitrocellulose membranes, blocked and blotted using specific antibodies. Antibodies used for western blot analysis were anti-phospho-Smad2, anti-STAT3 (pY705), anti-STAT3, anti-eIF2α^pS51, anti-eIF2α, anti-GCN2^pT898, anti-GCN2 (all from cell signaling technology, Danvers, Mass.). Anti-ATF4/CREB2 and anti-β-actin were purchased from Santa Cruz biotechnology (Santa Cruz, Calif.). […]

[2] = test system: Th17 differentiation of CD4+ CD25− T cells; assay: Th17 differentiation (IL-17+ IFNγ− cells) of T cells activated with TGFβ plus IL-6
Protocol: Low doses of halofuginone (HF) were tested to determine the ability of HF to enhance Treg differentiation, while suppressing Th17 differentiation. Nave. CD4+ T cells (CD4+ CD25−) were isolated from the spleen and peripheral lymph nodes of C57B/6 mice. T cells were then activated using anti-CD3 (0.3 μg/ml) and anti-CD28 (0.5 μg/ml) antibodies either in media alone (row 1, 4), TGFβ alone (3 ng/ml—row 2, 5) or TGFβ (3 ng/ml) plus IL-6 (30 ng/ml) (row 3, 6). […] T cells were cultured for 3 days and CD25 and Foxp3 expression (Treg marker genes) was determine by FACS staining and flow cytometric analyses. Simultaneously, T cells were harvested and re-stimulated for 4 hours using phorbol myristic acetate (PMA; 10 nM), Ionomycin (1 μM) and cytokine secretion was prevented using brefeldin A (20 μg/ml). Following stimulation, the production of IL-17 and IFNγ were determined by intracellular staining and analyzed via flow cytometry.
(§1) The dose-response of HF on CD4+ T cell proliferation, activation (i.e. CD25 upregulation) and differentiation to Th1, Th2 and Th17 lineages were evaluated. Purified murine naïve CD4+ CD25− T cells were activated using anti-CD3 (0.3 μg/ml) and anti-CD28 (0.5 μg/ml) antibodies and varying amounts of HF was added to each T cell culture condition (1.25 nM-40 nM). CD4+ T cell proliferation was monitored by CFSE dilution on day 3-post activation and CD25 expression was evaluated by FACS staining 2 days after activation. For T cell differentiation experiments, naïve T cells were activated as above in the presence of Th1 (IL-12 (20 ng/ml) plus anti-IL-4 (10 μg/ml)), Th2 (IL-4 (50 ng/ml) plus anti-IFNγ (0.5 mg/ml)) or Th17 (TGFβ (3 ng/ml) plus IL-6 (30 ng/ml)) polarizing conditions plus titrating amounts of HF (1.25 nM-40 nM) or MAZ1310 (40 nM). The percentage of Th17 cells, (IL-17^+ IFNγ^−) was evaluated on day 3 following activation, whereas the abundance of Th1 cells (IFNγ^+ IL-4) and Th2 cells (IL-4^+ IFNγ^−) was determined 5 days following activation. All cytokine expression was determined by intracellular staining following PMA+Ionomycin+Brefeldin A re-stimulation and all data was normalized to control (MAZ1310)-treated cells. […] Biol., vol. 80:1-8 (2006).
(§2) Cytokines, antibodies and T cell culture: Purified CD4^+ CD25^− T cells were activated in vitro as previously described (I. M. Djuretic et al., Nat Immunol 8, 145 (2007)) using 0.3 μg/ml hamster anti-mouse CD3 (clone 145-2C11) (ATCC—Manassas, Va.) and 0.5 μg/ml hamster anti-mouse CD28 (BD Pharmingen, San Jose, Calif.). Activated cell cultures were differentiated using the following combinations of cytokines and antibodies: iTreg=recombinant human TGFβ1 (3 ng/ml; R&D systems, Minneapolis, Minn.), Th17βTGFβ1 (3 ng/ml) plus recombinant mouse IL-6 (30 ng/ml, R&D systems). Th1 and Th2 differentiation was performed as previously described. (I. M. Djuretic et al., Nat Immunol 8, 145 (2007)). Human IL-2 supernatant (National Cancer Institute) was used in culture at 0.01 U/ml and was added at 48 hours-post activation when T cells were split into tissue culture wells lacking CD3 and CD28 antibodies, with the exception of Th17 cultures that were maintained in the absence of IL-2. All reagents were added at the time of T cell activation and again at 48-hours post activation unless indicated otherwise. For some experiments, purified CD4^+ CD25^− T cells, CD8^+ T cells or B cells were labeled with 1 μM CFSE (Invitrogen) prior to activation in accordance with manufacturers instructions.
Detection of cytokine production: Cytokines secreted into media supernatant were measured using the mouse Th1/Th2 cytometric bead array (CBA, BD Pharmingen) in accordance with manufacturers instructions.

CD4+ CD25− T cells = assay: CD4+ T cell proliferation, CD25 upregulation, cytokine production and Th1/Th2/iTreg differentiation; details: titrating concentrations of tunicamycin
Protocol: as §1, §2
Detection of cytokine production: Cytokines secreted into media supernatant were measured using the mouse Th1/Th2 cytometric bead array (CBA, BD Pharmingen) in accordance with manufacturers instructions. […]

NC(=O)c1ccc(-c2nc(-c3ccc4c(c3)OCO4)c(-c3ccccn3)[nH]2)cc1 [SB-431542]
effect on TGFβ-induced Smad phosphorylation and other lymphocyte responses to TGFβ, in words [1]: abrogated all responses to TGFβ

N[C@H](CO)Cc1c[nH]c2ccccc12 [L-tryptophanol]
effect of L-tryptophanol on IL-17 production, in words ([2]; 0.2 mM in complete medium, TGFβ plus IL-6): impaired IL-17 production

CC(C)(C)OC(=O)N1CCC[C@H](O)[C@H]1CC(=O)Cn1cnc2cc(Br)c(Cl)cc2c1=O [MAZ1310]
activity of the HF derivative used as negative control, in words ([2]; used at equal concentrations as HF): inactive

tunicamycin
effect of tunicamycin on IL-17 expression in T cells, in words ([2]; titrating concentrations of tunicamycin): little influence on IL-17 expression | effect of tunicamycin on Th1 and Th2 differentiation, in words (CD4+ CD25− T cells): preferentially impaired Th1 and Th2 differentiation
